The values below come from patent US20230141034A1, “ADAMANTANE-1-CARBONYL THIOUREA, AS P2X RECEPTOR ANTAGONIST” (COMSATS UNIVERSITY ISLAMABAD, priority 2021, published 2023).

In data set [1] the target is h-P2X5 (Homo sapiens, UniProt Q93086). The data set is described as follows: Ca2+ flux assay h-P2X5. Particulars: for inhibition at 50 µM: read-out: h-P2X5 % Inhibition.
Description: (§4) Compounds were initially analyzed at a final concentration of about 50 μM and percentage of inhibition was calculated.
(§5) Calcium Mobilization Assay to Measure P2X Receptors Response Cell Culture: P2X receptors functions can be analyzed from ATP-induced increase in cytosolic Ca^2+ concentration. Two Ca^2+ chelating dyes, Fura-2 AM and Fluo-4 AM can be used to determine the intracellular Ca^2+ concentration through a fluorescent imaging micro-titer plate reader (BMG Labtech: FLUOstar Galaxy®). Non-transfected human 1321N1 astrocytoma cells, as well as P2X receptors transfected human 1321N1 astrocytoma cells will be cultured in T-75 cm^2 cell culture flask having appropriate cell culture growth media; Dulbecco's Modified Eagle's medium (DMEM) supplemented with 10% fetal bovine serum (FBS), 75 μg/mL of Hygromycin B or human P2X receptors transfected cell lines and 1% pen-strep (antibiotics). Cells will be incubated at 37° C. in 5% CO2 incubator until 80 to 90% cell confluency will be achieved. Cells will be maintained in an exponential growth phase throughout the experiment and closely monitored for contamination.
Measurement of Ca^2+ Flux
(§6) When 1321N1 cells will reach 80 to 90% of confluency, cells will be harvested from T-75 cm^2 flask by trypsinization. After washing the cells with phosphate buffer saline (PBS), cells will be seeded at a density of 20,000 cells/well in black, clear bottom, poly-D-lysine coated 96 well plate. After 16 to 24 h, cell culture media will be removed and add Hank's balanced salt solution (HBSS) containing 3 μM Ca^2+ chelating dyes Fura-2 AM or Fluo-4 AM. After 1 h of incubation at 23° C., the loading dye solution will be removed, and added seven to eight dilutions of test compounds in triplicate format. ATP (at a concentration value of EC80) or buffer will be added and measured the excitation and emission at 340/520 nm and 380/520 nm through FLUOStar Galaxy®. Assay volume for the experiment will be 200 μL. IC50 and EC50 values will be calculated by PRISM 5.0 (GrapgPad, San Diego, Calif., USA) through non-linear regression analysis.
Data set [2] is described as follows: MTT cytotoxicity assay, human 1321N1 astrocytoma cell line. Particulars: human, 1321N1 astrocytoma cells, final concentration of 50 μM. In kind it is cell-based. As to the method: (§1) Cellular safety profiling of adamantane thioureas were done through MTT assay. All compounds were analyzed for toxicity at final concentration of 50 μM. […] Toxicity was determined against two cancer cell lines including human 1321N1 Astrocytoma cell line, HeLa cell line and a normal HEK-293 cell line.
(§2) c. Cell Viability Assay (MTT Assay)
(§3) After 24 h of incubation at 37° C. in CO2 incubator, culture media will be replaced with serum-free media along with test compounds and re-incubate. After 24 h, media will be removed and add 100 μL of MTT reagent (0.5-5 mg/mL) and will be incubated for a further 4 h, at 37° C. Absorbance will be measured at 570 and 630 nm to calculate cell viability.

Data set [3] has as its target T1, h-P2X2 (Homo sapiens, UniProt Q9UBL9).
T1 sequence (Q9UBL9 1-471): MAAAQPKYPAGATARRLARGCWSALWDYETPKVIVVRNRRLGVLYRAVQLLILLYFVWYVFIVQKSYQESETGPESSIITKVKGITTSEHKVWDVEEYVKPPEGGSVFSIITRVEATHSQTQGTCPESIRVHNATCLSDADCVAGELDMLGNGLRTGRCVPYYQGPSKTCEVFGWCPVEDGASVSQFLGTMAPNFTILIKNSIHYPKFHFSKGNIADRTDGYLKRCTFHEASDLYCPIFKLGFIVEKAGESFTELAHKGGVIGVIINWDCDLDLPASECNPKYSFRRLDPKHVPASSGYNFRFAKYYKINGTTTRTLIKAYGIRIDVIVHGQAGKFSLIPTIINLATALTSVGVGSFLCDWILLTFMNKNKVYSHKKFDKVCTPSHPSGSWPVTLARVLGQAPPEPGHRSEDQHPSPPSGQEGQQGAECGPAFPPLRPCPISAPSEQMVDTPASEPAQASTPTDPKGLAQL
The data set is described as follows: Ca2+ flux assay h-P2X2. Particulars: for inhibition at 50 µM: read-out: h-P2X2 % Inhibition; for IC50: read-out: h-P2X2 IC50 ± SEM, Ca2+ flux, n = 3. For orientation: Calcium flux is commonly read through the fluorescence of an indicator in the cells.
Description: as §4, §5
Measurement of Ca^2+ Flux
as §6

Data set [4] addresses T2, h-P2X7 (Homo sapiens, UniProt Q99572).
T2 sequence (Q99572 1-595): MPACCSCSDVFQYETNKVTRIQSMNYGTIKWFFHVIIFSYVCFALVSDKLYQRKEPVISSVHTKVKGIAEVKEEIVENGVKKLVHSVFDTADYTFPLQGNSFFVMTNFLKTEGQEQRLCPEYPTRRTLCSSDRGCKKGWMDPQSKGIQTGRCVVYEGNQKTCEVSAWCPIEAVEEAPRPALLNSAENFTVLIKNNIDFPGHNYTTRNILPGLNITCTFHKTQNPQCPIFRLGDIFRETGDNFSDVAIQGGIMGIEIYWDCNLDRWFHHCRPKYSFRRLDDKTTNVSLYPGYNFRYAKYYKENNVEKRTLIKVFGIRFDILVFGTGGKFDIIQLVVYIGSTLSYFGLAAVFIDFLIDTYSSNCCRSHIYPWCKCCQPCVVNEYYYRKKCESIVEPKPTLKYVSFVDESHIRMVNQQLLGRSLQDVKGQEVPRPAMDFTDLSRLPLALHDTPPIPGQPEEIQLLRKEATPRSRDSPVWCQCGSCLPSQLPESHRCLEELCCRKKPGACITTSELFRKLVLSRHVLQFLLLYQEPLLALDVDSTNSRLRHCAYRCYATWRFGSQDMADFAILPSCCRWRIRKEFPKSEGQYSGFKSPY
The data set is described as follows: Ca2+ flux assay h-P2X7. Particulars: for inhibition at 50 µM: read-out: h-P2X7 % Inhibition.
Description: as §4, §5
Measurement of Ca^2+ Flux
as §6

Data set [5] in a line: MTT cytotoxicity assay, HEK-293 cell line. In kind it is cell-based. Particulars: human, HEK-293 cells, final concentration of 50 μM. As to the method: as §1, §2, §3
(Tetrazolium dyes change colour on reduction, which living cells bring about.)

The nature of data set [6]: MTT cytotoxicity assay, HeLa cell line. In kind it is cell-based. Particulars: human, HeLa cells, final concentration of 50 μM. Here is the method:
as §1, §2, §3

The target in data set [7] is T3, h-P2X4 (Homo sapiens, UniProt Q99571).
T3 sequence (Q99571 1-388): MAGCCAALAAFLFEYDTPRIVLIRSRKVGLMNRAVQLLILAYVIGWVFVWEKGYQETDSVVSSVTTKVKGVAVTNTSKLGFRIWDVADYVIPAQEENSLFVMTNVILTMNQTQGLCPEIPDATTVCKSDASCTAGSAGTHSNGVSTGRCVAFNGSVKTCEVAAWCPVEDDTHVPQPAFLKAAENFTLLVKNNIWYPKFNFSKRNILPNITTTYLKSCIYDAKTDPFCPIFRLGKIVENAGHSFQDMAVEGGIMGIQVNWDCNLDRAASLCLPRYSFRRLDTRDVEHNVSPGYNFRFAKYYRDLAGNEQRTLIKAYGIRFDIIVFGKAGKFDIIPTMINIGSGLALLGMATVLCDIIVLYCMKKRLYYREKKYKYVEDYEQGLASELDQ
The data set is described as follows: Ca2+ flux assay h-P2X4. Particulars: for inhibition at 50 µM: read-out: h-P2X4 % Inhibition.
Description: as §4, §5
Measurement of Ca^2+ Flux
as §6

Where [8] appears, read: read-out: h-P2X7 IC50 ± SEM, Ca2+ flux, n = 3.
The mark [9] stands for this setting: read-out: h-P2X4 IC50 ± SEM, Ca2+ flux, n = 3.

Molecules are shown by their SMILES. Like-named read-outs stand apart in the source and are kept apart here.

Chain of h-P2X5 (Q93086 whole entry): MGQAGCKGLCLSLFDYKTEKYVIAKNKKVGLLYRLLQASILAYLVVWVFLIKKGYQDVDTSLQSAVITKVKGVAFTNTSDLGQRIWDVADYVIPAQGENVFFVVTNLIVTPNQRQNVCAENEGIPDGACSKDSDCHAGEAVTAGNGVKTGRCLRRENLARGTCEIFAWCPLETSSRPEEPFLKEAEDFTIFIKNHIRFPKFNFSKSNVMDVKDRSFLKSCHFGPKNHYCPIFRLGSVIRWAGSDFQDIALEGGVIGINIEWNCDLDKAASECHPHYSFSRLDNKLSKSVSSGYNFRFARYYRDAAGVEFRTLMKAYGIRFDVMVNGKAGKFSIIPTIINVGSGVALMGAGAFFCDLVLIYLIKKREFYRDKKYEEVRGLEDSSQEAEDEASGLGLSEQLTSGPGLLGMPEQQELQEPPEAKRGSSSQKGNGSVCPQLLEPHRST

Turning to `O=C(NC(=S)Nc1ccccc1O)C12CC3CC(CC(C3)C1)C2` [Ia, N-((2-hydroxyphenyl)carbamothioyl)adamantane-1-carboxamide], the inhibition (usually the share of the control response that was lost under treatment) at 50 µM in data set [1] amounted to 40.6%; in data set [3] it was 32.6%. Further, the cytotoxicity at 24 h, 50 µM in data set [2] was found to be 10.3%; in data set [5], 26.6%; in data set [6] it was 13.1%. For the same compound, the half-inhibitory concentration (IC50) (in general, the concentration at which inhibition is half-maximal) came out at 1.47 ± 0.09 µM in data set [4] (setting [8]) and 1.08 ± 0.02 µM in data set [7] (setting [9]).
In the case of `O=C(NC(=S)Nc1cccc(O)c1)C12CC3CC(CC(C3)C1)C2` [Ib, N-((3-hydroxyphenyl)carbamothioyl)adamantane-1-carboxamide], the inhibition at 50 µM in data set [1] is 43.6%; in data set [3], 32.6%; in data set [4] it was 19.1%; in data set [7], 36.7%. Also, the cytotoxicity at 24 h, 50 µM was found to be 5.67% in data set [2], 6.95% in data set [5] and 11% in data set [6].
In the case of `O=C(NC(=S)Nc1ccc(O)cc1)C12CC3CC(CC(C3)C1)C2` [Ic, N-((4-hydroxyphenyl)carbamothioyl)adamantane-1-carboxamide], the inhibition at 50 µM in data set [1] turned out to be 33.2%; in data set [3] it was 37.9%; in data set [7], 32.4%. Besides, the figures for the cytotoxicity at 24 h, 50 µM in data set [2], in data set [5] and in data set [6] were 19%, 3.02% and 8.66%, respectively. Further, the IC50 in data set [4] (setting [8]) is 1.4 ± 0.18 µM.
For the compound `O=C(NC(=S)Nc1cc(Cl)c(O)c(Cl)c1)C12CC3CC(CC(C3)C1)C2` [Id, N-((3,5-dichloro-4-hydroxyphenyl)carbamothioyl)adamantane-1-carboxamide], the IC50 in data set [1] is 3.4 ± 0.4 µM; in data set [3], 1.06 ± 0.05 µM; in data set [7] (setting [9]), 1.28 ± 0.11 µM. Also, the cytotoxicity at 24 h, 50 µM is 6.18% in data set [2], 1.06% in data set [5] and 5.4% in data set [6].
With `O=C(NC(=S)Nc1cc(Br)c(O)c(C(F)(F)F)c1)C12CC3CC(CC(C3)C1)C2` [Ie, N-((3-bromo-4-hydroxy-5-(trifluoromethyl)phenyl)carbamothioyl)adamantane-1-carboxamide], the inhibition at 50 µM in data set [1] was 20.4%; in data set [3], 30.5%. Moreover, the cytotoxicity at 24 h, 50 µM in data set [2] was 5.37%; in data set [5], 6.85%; in data set [6] it was 11.9%. Further, the IC50 in data set [4] came to 4.02 ± 0.64 µM; in data set [7], 4.53 ± 0.39 µM.
For the compound `NS(=O)(=O)c1cccc(NC(=S)NC(=O)C23CC4CC(CC(C4)C2)C3)c1` [Ig, N-((3-sulfamoylphenyl)carbamothioyl)adamantane-1-carboxamide], the inhibition at 50 µM is 42.5% in data set [1] and 18.1% in data set [3]. Moreover, the cytotoxicity at 24 h, 50 µM in data set [2] turned out to be 12.9%; in data set [5] it was 3.77%; in data set [6], 12.5%. The IC50 was 0.829 ± 0.12 µM in data set [4] and 4.19 ± 0.23 µM in data set [7].
`O=C(NC(=S)Nc1cc([N+](=O)[O-])ccc1Cl)C12CC3CC(CC(C3)C1)C2` [Ih, N-((2-chloro-5-nitrophenyl)carbamothioyl)adamantane-1-carboxamide]: the inhibition at 50 µM in data set [1] is 32.1%. Moreover, the cytotoxicity at 24 h, 50 µM in data set [2] was 20.5%; in data set [5], 24.6%; in data set [6], 8.66%. For the same compound, the IC50 in data set [3] was determined as 4.58 ± 0.21 µM; in data set [4] (setting [8]), 2.53 ± 0.72 µM; in data set [7] (setting [9]), 1.29 ± 0.09 µM.
In the case of `COc1cccc(NC(=S)NC(=O)C23CC4CC(CC(C4)C2)C3)c1` [Ii, N-((3-methoxyphenyl)carbamothioyl)adamantane-1-carboxamide], the inhibition at 50 µM in data set [1] was 44%; in data set [4] it was 15.1%; in data set [7], 38%. For the same compound, the cytotoxicity at 24 h, 50 µM was 6.53% in data set [2], 20.7% in data set [5] and 18.1% in data set [6]. The IC50 in data set [3] amounted to 2.31 ± 0.31 µM.
`COc1ccc(NC(=S)NC(=O)C23CC4CC(CC(C4)C2)C3)cc1` [Ij, N-((4-methoxyphenyl)carbamothioyl)adamantane-1-carboxamide]: the inhibition at 50 µM in data set [1] was determined as 44.5%; in data set [4], 29.4%; in data set [7] it was 44.9%. Further, the cytotoxicity at 24 h, 50 µM in data set [2] was 4.56%; in data set [5], 10.6%; in data set [6], 8.01%. In data set [3], the half-inhibitory concentration (IC50) is 5.24 ± 0.32 µM.
With `COc1ccc(NC(=S)NC(=O)C23CC4CC(CC(C4)C2)C3)cc1OC` [Ik, N-((3,4-dimethoxyphenyl)carbamothioyl)adamantane-1-carboxamide], the half-maximal inhibitory concentration (IC50) in data set [1] came out at 1.48 ± 0.23 µM; in data set [3] it was 0.732 ± 0.01 µM; in data set [4] (setting [8]) it was 4.9 ± 1.04 µM; in data set [7] (setting [9]), 3.46 ± 0.4 µM. Moreover, the cytotoxicity at 24 h, 50 µM in data set [2] came out at 19.4%; in data set [5], 7.2%; in data set [6], 14.3%.
Turning to `O=C(NC(=S)Nc1ccc(Br)cc1)C12CC3CC(CC(C3)C1)C2` [Il, N-((4-bromophenyl)carbamothioyl)adamantane-1-carboxamide], the inhibition at 50 µM turned out to be 47.7% in data set [1], 36% in data set [3] and 46.8% in data set [7]. For the same compound, the cytotoxicity at 24 h, 50 µM in data set [2] stood at 15.4%; in data set [5], 18.7%; in data set [6], 7.19%. Moreover, the 50% inhibitory concentration (IC50) in data set [4] (setting [8]) was determined as 8.8 ± 1.12 µM.
Consider `Cc1ccc(NC(=S)NC(=O)C23CC4CC(CC(C4)C2)C3)c(Br)c1` [Im, N-((2-bromo-4-methylphenyl)carbamothioyl)adamantane-1-carboxamide], for which the half-maximal inhibitory concentration (IC50) in data set [1] turned out to be 6.04 ± 1.2 µM; in data set [3], 4.85 ± 0.32 µM; in data set [4] (setting [8]), 3.71 ± 0.78 µM; in data set [7] (setting [9]), 1.56 ± 0.21 µM. Besides, the cytotoxicity at 24 h, 50 µM in data set [2] is 7.29%; in data set [5], 18.9%; in data set [6] it was 15.4%.
As for `Cc1ccc(C(=O)Nc2ccc(S(=O)(=O)O)c3cc(S(=O)(=O)O)cc(S(=O)(=O)O)c23)cc1NC(=O)c1cccc(NC(=O)Nc2cccc(C(=O)Nc3cc(C(=O)Nc4ccc(S(=O)(=O)O)c5cc(S(=O)(=O)O)cc(S(=O)(=O)O)c45)ccc3C)c2)c1` [Suramin, reference compound], the 50% inhibitory concentration (IC50) was 16.1 ± 0.5 µM in data set [1] (read-out: h-P2X5 IC50 ± SEM, Ca2+ flux, n = 3); 13.45 ± 0.11 µM in data set [3]; 5.64 ± 0.04 µM in data set [7] (setting [9]). Besides, the cytotoxicity at 24 h, 50 µM came to 18.6% in data set [2], 48% in data set [5] and 21.7% in data set [6].
